According to US9663495B2 (YUHAN CORPORATION, priority 2013, dated 2017):

How the values were obtained:
GPR119 [1] = target: T1, GPR119 (Homo sapiens, UniProt Q8TDV5); experiment: cAMP Accumulation Assay (GPR119 CRE-bla CHO-K1 cells, LiveBLAzer-FRET B/G); type: cell-based; details: for EC50: 5 hours incubation; for Emax (Fold): maximum activity, response ratio versus non-treated control group
T1 construct: host or cells: CHO-K1 (GPR119 CRE-bla, doxycycline-induced)
T1 sequence (Q8TDV5 1-335): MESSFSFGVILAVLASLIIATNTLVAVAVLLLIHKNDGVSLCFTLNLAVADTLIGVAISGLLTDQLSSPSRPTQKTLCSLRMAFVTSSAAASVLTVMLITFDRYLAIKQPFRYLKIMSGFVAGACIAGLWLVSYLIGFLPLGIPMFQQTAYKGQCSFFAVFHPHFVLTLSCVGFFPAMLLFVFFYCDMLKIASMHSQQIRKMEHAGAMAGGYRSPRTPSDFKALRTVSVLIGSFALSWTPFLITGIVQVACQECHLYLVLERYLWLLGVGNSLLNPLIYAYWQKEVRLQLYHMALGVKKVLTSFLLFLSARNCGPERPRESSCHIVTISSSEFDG

male C57BL/6 mice = experiment: Oral Glucose Tolerance Test (OGTT); type: in vivo; parameters: concentration or dose not given beside the values; details: fasted male C57BL/6 mice, oral administration 30 minutes before oral glucose; AUCglucose 0-120 minutes versus negative control group
Description: The oral glucose tolerance test of the compounds according to the present invention was carried out according to the procedures disclosed in Andrikopoulos S, Blair A R, Deluca N, Fam B C, Proietto J, Am J Physiol Endocrinol Metab. 2008, Vol 295, E1323-1332. Briefly, male C57BL/6 mice at 8 to 9 weeks of age having 20 g to 25 g of body weight (Orient Bio Inc. Korea) were allowed to acclimatize to the surroundings (temperature: 20±2° C., humidity: 40-60%, light/dark cycle: 12 hours) for 1 week. During the acclimatization, the mice were given ad libitum access to feed and water. The mice were fasted from 18 hours before the test, except for allowing free access to water. After measuring the mice′ body weights and blood sugar levels, they were divided into test groups so as to have similar blood sugar levels. The mice were orally administered with a mixture of test compound and the diluent (0.5% solution of MC1500 (Sigma)). At 30 minutes after the administration, the mice were also orally administered with 20% glucose solution in an amount of 0.1 ml per 10 g of body weight. The blood samples were taken from the tail vain at 0 (right before the administration of the glucose solution), 15, 30, 60, 90, and 120 minutes after the administration of the glucose solution; and the blood sugar levels thereof were measured with a blood glucose test meter (GlucoDr. AGM-3000, All Medicus Co. Ltd.). The graph for blood sugar level on time for each test compound was plotted from the respective blood sugar values; and then area under the curve (AUCglucose) was determined. The inhibition rate of blood sugar (%) was calculated from the following formula. Inhibition rate of blood sugar (%)=[(AUCglucose of the negative control group−AUCglucose of the test group)/AUCglucose of the negative control group]×100

GPR119 [2] = target: T1, GPR119; experiment: cAMP Accumulation Assay (GPR119 CRE-bla CHO-K1 cells, LiveBLAzer-FRET B/G); type: cell-based; details: (Emax of the test compound/Emax of MBX-2982)x100, 5 hours incubation

Row | Compound | EC50 (GPR119 [1]) | Emax (Fold) (GPR119 [1]) | Inhibition rate of blood sugar (%) (male C57BL/6 mice) | Emax (% RR) (GPR119 [2])
1 | CCc1cnc(N2CCN(c3ncc(-c4ccc(-n5cnn(CCN6CCCC6)c5=O)c(F)c4)cc3C#N)[C@@H](C)C2)nc1 [Example 14] | 14.8 nM | 3.3 Fold | 18.6% | 125.1 % RR
2 | CCc1cnc(N2CCN(c3ncc(-c4ccc(-n5cnn(CCN6CCOCC6)c5=O)c(F)c4)cc3C#N)[C@@H](C)C2)nc1 [Example 15, (S)-2-(4-(5-ethylpyrimidin-2-yl)-2-methylpiperazin-1-yl)-5-(3-fluoro-4-(1-(2-morpholinoethyl)-5-oxo-1H-1,2,4-triazol-4(5H)-yl)phenyl)nicotinonitrile] | 5 nM | 3.5 Fold | 21.7% | 124.5 % RR
3 | CC(C)c1nc(C2CCN(c3ncc(-c4ccc(-n5cnn([C@H]6CCOC6)c5=O)cc4)cc3C#N)CC2)no1 [Example 71, (S)-2-(4-(5-isopropyl-1,2,4-oxadiazol-3-yl)piperidin-1-yl)-5-(4-(5-oxo-1-(tetrahydrofuran-3-yl)-1H-1,2,4-triazol-4(5H)-yl)phenyl)nicotinonitrile] | 9.8 nM | 3.8 Fold | 20.4% | 127.3 % RR
4 | CCCn1ncn(-c2ccc(-c3cnc(N4CCN(C(=O)OC(C)(C)C)C[C@@H]4C)c(C#N)c3)cc2F)c1=O [Example 5, (S)-tert-butyl 4-(3-cyano-5-(3-fluoro-4-(5-oxo-1-propyl-1H-1,2,4-triazol-4(5H)-yl)phenyl)pyridin-2-yl)-3-methylpiperazin-1-carboxylate] | 4 nM | 2.7 Fold | 21.9% | 109.1 % RR
5 | CCc1cnc(N2CCN(c3ncc(-c4ccc(-n5cnn(CCN(CC)CC)c5=O)c(F)c4)cc3C#N)[C@@H](C)C2)nc1 [Example 10, (S)-5-(4-(1-(2-(diethylamino)ethyl)-5-oxo-1H-1,2,4-triazol-4(5H)-yl)-3-fluorophenyl)-2-(4-(5-ethylpyrimidin-2-yl)-2-methylpiperazin-1-yl)nicotinonitrile] | 8 nM | 2.6 Fold | 23.8% | 104.5 % RR
6 | CCc1cnc(N2CCN(c3ncc(-c4ccc(-n5cnn(CCOC)c5=O)cc4)cc3C#N)CC2)nc1 [Example 40, 2-(4-(5-ethylpyrimidin-2-yl)piperazin-1-yl)-5-(4-(1-(2-methoxyethyl)-5-oxo-1H-1,2,4-triazol-4(5H)-yl)phenyl)nicotinonitrile] | 9 nM | 3.1 Fold | 17.2% | 112.1 % RR
7 | CCc1cnc(N2CCN(c3ncc(-c4ccc(-n5cnn(CC(=O)N6CCCC6)c5=O)c(F)c4)cc3C#N)CC2)nc1 [Example 37, 2-(4-(5-ethylpyrimidin-2-yl)piperazin-1-yl)-5-(3-fluoro-4-(5-oxo-1-(2-oxo-2-(pyrrolidin-1-yl)ethyl)-1H-1,2,4-triazol-4(5H)-yl)phenyl)nicotinonitrile] | 3.2 nM | 3.1 Fold | 16.5% | 110.0 % RR
8 | CCc1cnc(N2CCN(c3ncc(-c4ccc(-n5cnn(CCN)c5=O)c(F)c4)cc3C#N)[C@@H](C)C2)nc1.Cl [Example 17, (S)-5-(4-(1-(2-aminoethyl)-5-oxo-1H-1,2,4-triazol-4(5H)-yl)-3-fluorophenyl)-2-(4-(5-ethylpyrimidin-2-yl)-2-methylpiperazin-1-yl)nicotinonitrile hydrochloride] | 8.2 nM | 3.2 Fold | 18.2% | 115.1 % RR
9 | C[C@H]1CN(C(=O)OC(C)(C)C)CCN1c1ncc(-c2ccc(-n3cnn(C)c3=O)c(F)c2)cn1 [Example 1, (S)-tert-butyl 4-(5-(3-fluoro-4-(1-methyl-5-oxo-1H-1,2,4-triazol-4(5H)-yl)phenyl)pyrimidin-2-yl)-3-methylpiperazin-1-carboxylate] | 59 nM | 2.9 Fold | 22.3% | 123.9 % RR
10 | CC(C)c1nc(N2CCN(c3ncc(-c4ccc(-n5cnn([C@H]6CCOC6)c5=O)c(F)c4)cc3C#N)CC2)no1 [Example 47, (S)-5-(3-fluoro-4-(5-oxo-1-(tetrahydrofuran-3-yl)-1H-1,2,4-triazol-4(5H)-yl)phenyl)-2-(4-(5-isopropyl-1,2,4-oxadiazol-3-yl)piperazin-1-yl)nicotinonitrile] | 12 nM | 3.2 Fold | 32.7% | 141.6 % RR
11 | CC(C)c1nc(C2CCN(c3ncc(-c4ccc(-n5cnn([C@@H]6CCOC6)c5=O)cc4)cc3C#N)CC2)no1 [Example 70, (R)-2-(4-(5-isopropyl-1,2,4-oxadiazol-3-yl)piperidin-1-yl)-5-(4-(5-oxo-1-(tetrahydrofuran-3-yl)-1H-1,2,4-triazol-4(5H)-yl)phenyl)nicotinonitrile] | 36 nM | 3.5 Fold | 25.2% | 120.0 % RR
12 | COCCn1ncn(-c2ccc(-c3cnc(N4CCC(c5noc(C(C)C)n5)CC4)c(C#N)c3)cc2)c1=O [Example 69, 2-(4-(5-isopropyl-1,2,4-oxadiazol-3-yl)piperidin-1-yl)-5-(4-(1-(2-methoxyethyl)-5-oxo-1H-1,2,4-triazol-4(5H)-yl)phenyl)nicotinonitrile] | 16 nM | 3.7 Fold | 25.8% | 126.7 % RR
13 | CCc1cnc(N2CCN(c3ncc(-c4ccc(-n5cnn([C@@H]6CCOC6)c5=O)c(F)c4)cc3C#N)CC2)nc1 [Example 33, (R)-2-(4-(5-ethylpyrimidin-2-yl)piperazin-1-yl)-5-(3-fluoro-4-(5-oxo-1-(tetrahydrofuran-3-yl)-1H-1,2,4-triazol-4(5H)-yl)phenyl)nicotinonitrile] | 4.4 nM | 4.0 Fold | 20.9% | 125.7 % RR
